In PubChem BioAssay (NCI):
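Five concentrations, 48 hours, 96-well plates. Abbreviation: GI50, concentration required for 50% inhibition of growth. TGI marks complete inhibition of growth.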

Key:
Experiment in all cases: growth of human tumour cells (NCI), 48 h
CAKI-1 renal = tested on: CAKI-1 renal
HCT-116 colon = tested on: HCT-116 colon
HL-60(TB) leukemia = tested on: HL-60(TB) leukemia
HT29 colon = tested on: HT29 colon
MALME-3M melanoma = tested on: MALME-3M melanoma
MDA-MB-435 = tested on: MDA-MB-435
OVCAR-5 ovarian = tested on: OVCAR-5 ovarian
PC-3 prostate = tested on: PC-3 prostate
SK-OV-3 ovarian = tested on: SK-OV-3 ovarian
SW-620 colon = tested on: SW-620 colon

Row | SMILES | GI50 (CAKI-1 renal) | TGI (CAKI-1 renal) | GI50 (HCT-116 colon) | TGI (HCT-116 colon) | GI50 (HL-60(TB) leukemia) | TGI (HL-60(TB) leukemia) | GI50 (HT29 colon) | TGI (HT29 colon) | GI50 (MALME-3M melanoma) | TGI (MALME-3M melanoma) | GI50 (MDA-MB-435) | TGI (MDA-MB-435) | GI50 (OVCAR-5 ovarian) | TGI (OVCAR-5 ovarian) | GI50 (PC-3 prostate) | TGI (PC-3 prostate) | GI50 (SK-OV-3 ovarian) | TGI (SK-OV-3 ovarian) | GI50 (SW-620 colon) | TGI (SW-620 colon)
1 | Fc1ccc(Nc2nc3nonc3nc2Nc2ccc(F)cc2)cc1 | 0.35 µM | 10.8 µM | 0.322 µM | 11.4 µM | 0.342 µM | 1.5 µM | 0.482 µM | 10.7 µM | 0.277 µM | 1.11 µM | 0.338 µM | 3.61 µM | 0.709 µM | 13.8 µM | 0.28 µM | 11.2 µM | 0.244 µM | 0.852 µM | 0.573 µM | 14.2 µM
2 | CCCCCCCCCc1cccc(N2C(N)=NC(N)=NC2(C)C)c1 | – | 2.5 µM | – | 1.15 µM | – | 1.71 µM | – | 1.33 µM | – | 8.22 µM | – | 1.83 µM | – | 4.67 µM | – | > 35.7 µM | – | > 33.1 µM | – | 1.63 µM
3 | Nc1nc(-c2ccc(F)cc2)c(-c2ccc3ncccc3n2)s1 | 9.27 µM | > 25 µM | > 25 µM | > 25 µM | > 25 µM | > 25 µM | 16.3 µM | > 25 µM | 19.6 µM | > 25 µM | > 25 µM | > 25 µM | 14.1 µM | > 25 µM | 13.5 µM | > 25 µM | 6.82 µM | > 25 µM | > 25 µM | > 25 µM
4 | COc1cc(OC)c(/C=C/c2cnc3ccccc3n2)c(OC)c1 | – | > 10 µM | – | > 10 µM | – | > 10 µM | – | > 10 µM | – | > 10 µM | – | > 10 µM | – | > 10 µM | – | > 10 µM | – | > 10 µM | – | > 10 µM
5 | COc1cc2c(cc1Nc1nc(Nc3ccsc3C(N)=O)c3cc[nH]c3n1)N(C(=O)CN(C)C)CCC2(C)C | 1.37 µM | 6.69 µM | 1.05 µM | 4.8 µM | < 0.0025 µM | 2.04 µM | < 0.0025 µM | 2.53 µM | 1.48 µM | 5.62 µM | 0.299 µM | 2.49 µM | 0.0412 µM | 3.67 µM | 2.55 µM | 7.01 µM | 3.64 µM | 6.94 µM | 0.357 µM | 4.1 µM
6 | Cc1cccc2c(=O)c3c(sc12)c(NCCNCCO)nc1ccccc13 | 1.25 µM | 2.56 µM | 1.35 µM | 2.72 µM | 1.89 µM | 3.59 µM | 1.4 µM | 3.13 µM | 1.65 µM | 3.18 µM | 1.75 µM | 3.25 µM | 1.61 µM | 3.06 µM | 1.3 µM | 2.73 µM | – | – | 1.45 µM | 3.01 µM
7 | O=C(NCc1ccc(Cn2c(=O)sn(-c3ccccc3)c2=O)cc1)OCc1ccc2c(Br)cc(Br)c(O)c2n1 | 0.404 µM | 1.67 µM | 0.141 µM | 0.328 µM | 0.659 µM | > 20.3 µM | 0.539 µM | 1.89 µM | 1.38 µM | 2.78 µM | 0.427 µM | 1.59 µM | 1.43 µM | 2.97 µM | 0.727 µM | 2.18 µM | 3.61 µM | 14 µM | 0.246 µM | 0.649 µM
8 | CCOC(=O)C(=Cc1ccc(Oc2ccccc2)cc1)C(=O)OCC | – | 28.4 µM | – | 5.93 µM | – | 5.54 µM | – | 11 µM | – | 7.4 µM | – | 6.33 µM | – | 14 µM | – | 6.12 µM | – | 20.5 µM | – | 5.9 µM
9 | COC(=O)C1=C(C)NC(C)=C(C(=O)OC)C1/C=C(Cl)/C=C/c1ccccc1 | 20.7 µM | 49.3 µM | 17.2 µM | 30.9 µM | 17.8 µM | 41.2 µM | 18.9 µM | 44.9 µM | 19.8 µM | 46 µM | 18.8 µM | 37.1 µM | 19.4 µM | 54.2 µM | 18.2 µM | 38.3 µM | 28.2 µM | > 100 µM | 37.3 µM | > 100 µM
10 | COc1ccc(/C(C#N)=C/c2ccc(OC)c(OC)c2)cc1 | – | > 100 µM | – | > 100 µM | – | > 100 µM | – | > 100 µM | – | > 100 µM | – | > 100 µM | – | > 100 µM | – | > 100 µM | – | > 100 µM | – | > 100 µM
11 | CCNC(=O)c1cc2c(-c3cc(C(C)(C)O)ccc3Oc3c(C)cc(F)cc3C)cn(C)c(=O)c2[nH]1 | 0.875 µM | 13.2 µM | 1.32 µM | 12.5 µM | 0.393 µM | 4.88 µM | 1.12 µM | 15 µM | 2.15 µM | 15.2 µM | 1.41 µM | 14.3 µM | 1.63 µM | 16.2 µM | 2.42 µM | 13.9 µM | – | – | 3.56 µM | 21 µM
